Data from patent publication US7875603B2, “Specific inhibitors for vascular endothelial growth factor receptors” (Nova Southeastern University, priority 2006, dated 2011).

Experiments:
Type in all cases: cell-based
[1] = tested on: Human umbilical vein endothelial cell; assay: In Vitro Angiogenesis Assay (morphogenesis / tube formation on Matrigel); set-up: key to In Vitro Angiogenesis Assay Results (score of extent of cellular networks): Individual cells, well separated (+++++); Cells begin to migrate and align themselves (++++); Cells begin to line but not sprouting (+++); Visible Sprouting (++); Closed polygons begins to form (+); conditions: for In Vitro Angiogenesis Assay Results (score of extent of cellular networks): HUVECs 10^4 cells/well on ECMatrix, inhibitors 1 mM and 10 mM, 8 hours at 37° C., higher score = greater inhibition of angiogenesis
Method: In Vitro Angiogenesis Assay
Human umbilical vein endothelial cell was purchased from Cambrex Co. (East Rutherford, N.J.) and maintained in EGM (Endothelial Growth Medium) supplemented with 2% FBS, 0.1% EGF, 0.1% Hydrocortisone, 0.1% GA-1000 and 0.4% BBE.
The morphogenesis assay on Matrigel was performed according to the manufacturer's instructions (Chemicon International). The ECMatrix™ kit consists of laminin, collagen type IV, heparan sulfate, proteoglycans, entactin and nidogen. It also contains various growth factors (TGF-β, FGF) and proteolytic enzymes (plasminogen, tPA, MMPs) that are normally produced in EHS tumors. The incubation condition was optimized for maximal tube-formation as follows: 50 μl of EC Matrix™ was suitably diluted in the ratio 9:1 with 10×diluent buffer and used for coating the 96-well plate. The coated plates were incubated at 37° C. for 1 hr. to allow the Matrix solution to solidify. In the meantime the HUVECs that were cultured for 24 hours in EGM with 2% FBS was trypsinised and re-suspended in the growth media and the cells were counted. After 1 hr. pre-incubation of the plate with Matrix solution, the HUVECs were plated at 10^4 cells/well in the absence or in the presence of different VEGFR inhibitors (1 mM and 10 mM). After 8 hours incubation at 37° C., the cell three-dimensional organization (cellular network structures) was examined under an inverted photomicroscope. Each treatment was performed in triplicate.
Activated endothelial cells form cellular networks (mesh like structures) resembling capillary tubes sprouting into the stromal space. The formation of these cellular networks is a dynamic process, which started migration and alignment of cells followed by the development of capillary tubes like structures, sprouting of new branches and finally the formation of the cellular networks. Although this in vitro angiogenesis kit is designed only as a qualitative assay, we have made an attempt to quantitate the degree of angiogenesis using a scoring method. The scoring was based on the extent of the cellular networks that were observed as follows:
Individual cells, well separated (+++++)
Cells begin to migrate and align themselves (++++)
Cells begin to line but not sprouting (+++)
Closed polygons begins to form (+).
According to our qualitative assessment, the higher the scoring the greater the efficiency of the compound for inhibiting endothelial cell mediated angiogenesis.

[2] = tested on: GI-101A; assay: Cytotoxicity towards GI-101A breast carcinoma cell line
[3] = tested on: MCF-7; assay: Cytotoxicity towards MCF-7 breast carcinoma cell line

SMILES | In Vitro Angiogenesis Assay Results (score of extent of cellular networks) [1] | cytotoxicity towards GI-101A [2] | EC50 ([1]; Homo sapiens, estimated, in vitro angiogenesis assay, HUVEC, read-out: EC50 value for anti-antigenic effect) [nM] | cytotoxicity towards MCF-7 [3]
CCCCCCCCCCCCCCCCCCOc1ccc(C(=O)CC(=O)Nc2ccc(Oc3ccc(C(=O)O)cc3)c(C(=O)O)c2)cc1 [Example 6] | ++ | – | – | –
CCCCCCCCCCCCCCCCCCOc1ccc(C(=O)CC(=O)Nc2ccc(Sc3cccc(C(=O)O)c3)c(C(=O)O)c2)cc1 [Example 5] | +++ | – | – | –
CCCCCCCCCCOc1ccc(C(=O)N/N=C/c2ccc(OC)cc2)cc1 [Example 3] | ++++ | – | – | –
CCC(CNCCO)Nc1nc2c(c(=O)n(C)c(=O)n2C)n1Cc1ccccc1 (stereo not shown) [Example 7] | ++ | – | – | –
CCCCCCCOc1ccc(/C=N\NC(=O)c2ccc(Br)cc2)cc1 [Example 4] | +++ | – | – | –
COc1ccc(NCC(O)Cn2cnc3c2c(=O)n(C)c(=O)n3C)cc1 (stereo not shown) [Example 1] | +++++ | produced cytotoxicity | 250 | produced cytotoxicity
CCCCCCCCCCCCCCCCOc1ccc(C(NNS(=O)(=O)c2cccc(C(=O)O)c2)N2CCCCC2)cc1 (stereo not shown) [Example 2] | ++++ | – | – | –
